For data set [1], the system named is Aspergillus fumigatus. Nature of the data set: Antifungal activity against Aspergillus fumigatus ATCC 46645 assessed as inhibition of fungal growth incubated for 5 days by CLSI protocol based microbroth dilution method. In kind it is functional, organism-based. Conditions: ATCC 46645, 120 h.
The test system of data set [2] is Aspergillus fumigatus. Nature of the data set: Antifungal activity against Aspergillus fumigatus ATCC 46645 assessed as inhibition of conidial and mycelial growth incubated for 5 days by CLSI protocol based microbroth dilution method. Type of data set: functional. The settings on record: ATCC 46645, 120 h, time 5 day. (In broth dilution the organism is exposed to a series of concentrations in liquid medium.)

Data set [3] relates to Aspergillus fumigatus. As to the kind of experiment: Antifungal activity against Aspergillus fumigatus ATCC 46645 assessed as decrease in DHN-melanin content by measuring absorption spectra at optical density 275 nm at IC50 concentration incubated for 5 days by UV-vis spectrophotometric analysis. In kind it is functional. Conditions: time 5 day.
For data set [4], the system named is Aspergillus fumigatus. As to the kind of experiment: Antifungal activity against Aspergillus fumigatus ATCC 46645 assessed as smooth conidial surface with absence of protrusions at IC50 concentration by scanning electron microscopic analysis. Type of data set: functional, organism-based.
Data set [5] relates to Aspergillus fumigatus. As to the kind of experiment: Antifungal activity against Aspergillus fumigatus ATCC 46645 assessed as decrease in number of conidia at IC50 concentration by scanning electron microscopic analysis. In kind it is functional, organism-based.
The subject of data set [6] is Aspergillus fumigatus. As to the kind of experiment: Antifungal activity against Aspergillus fumigatus ATCC 46645 assessed as absence of melanin layer at IC50 concentration by transmission electron microscopic analysis. In kind it is functional, organism-based.
The test system of data set [7] is Cell membrane. As to the kind of experiment: Induction of cell membrane disruption in Aspergillus fumigatus ATCC 46645 assessed as accumulation of cytoplasmic content at IC50 concentration by transmission electron microscopic analysis. Type of data set: subcellular.
A short description of data set [8]: Cytotoxicity against human L132 cells assessed as inhibition of cell growth. Type of data set: toxicity, cell-based.
A short description of data set [9]: Selectivity index, ratio of CC50 for cytotoxicity against human L-132 cells assessed as inhibition of cell growth to IC50 for antifungal activity against Aspergillus fumigatus ATCC 46645 assessed as inhibition of fungal growth. Type of data set: toxicity, cell-based. Conditions: read-out: Ratio IC50.
Data set [10] is described as follows: Cytotoxicity against human L132 cells assessed as inhibition of cell growth incubated for 24 hrs by MTT assay. In kind it is toxicity, cell-based. On the technique in general: Formazan colour is commonly taken as a measure of viable cells.
Data set [11] has as its system Aspergillus fumigatus. Nature of the data set: Antifungal activity against Aspergillus fumigatus ATCC 46645 assessed as decrease in conidia formation at IC50 concentration by UV-vis spectrophotometric analysis. In kind it is functional, organism-based.
The subject of data set [12] is Aspergillus fumigatus. As to the kind of experiment: Antifungal activity against Aspergillus fumigatus ATCC 46645 assessed as decrease in DHN-melanin content at IC50 concentration incubated for 5 days by UV-vis spectrophotometric analysis. Type of data set: functional, organism-based. Conditions: time 5.0 day.
Data set [13] relates to Aspergillus fumigatus. As to the kind of experiment: Antibiofilm activity against Aspergillus fumigatus ATCC 46645 at 69.53 to 86.92 uM incubated for 24 hrs by MTT assay. In kind it is functional, organism-based. The settings on record: dose 69.53-86.92 µM.
Data set [14] deals with Aspergillus fumigatus. Nature of the data set: Antibiofilm activity against Aspergillus fumigatus ATCC 46645 assessed as absence of ECM on hyphae at 69.53 to 86.92 uM. Type of data set: functional, organism-based. The settings on record: dose 69.53-86.92 µM.
For data set [15], the system named is Aspergillus fumigatus. Nature of the data set: Antibiofilm activity against Aspergillus fumigatus ATCC 46645 at 243.60 to 304.5 uM incubated for 24 hrs by MTT assay. Type of data set: functional, organism-based. Conditions: dose 243.6-304.5 µM.
The test system of data set [16] is Aspergillus fumigatus. As to the kind of experiment: Antibiofilm activity against Aspergillus fumigatus ATCC 46645 assessed as absence of ECM on hyphae at 243.60 to 304.5 uM. Type of data set: functional, organism-based. The settings on record: dose 243.6-304.5 µM.

Structures are written as SMILES. Converted amounts (≈) assume the structure as drawn. The source made the active and inactive calls. The rule behind the calls is not given here.

By IC50 is commonly meant the concentration that gives 50% inhibition. The MIC is the lowest concentration that inhibits growth of the organism. For orientation: CC50 means the concentration that lowers cell viability or growth by half.

Take `C/C=C/c1ccc(OCc2cn(C3O[C@@H](C)[C@H](OC(C)=O)[C@@H](OC(C)=O)[C@H]3OC(C)=O)nn2)c(OC)c1` (some centres not stated): the IC50 in data set [1] was found to be 12.1 µM. Further, the MIC in [2] is above 20 µM.
For `CCCc1ccc(OCc2cn([C@@H]3O[C@H](COC(C)=O)[C@@H](OC(C)=O)[C@H](OC(C)=O)[C@H]3OC(C)=O)nn2)c(OC)c1`, in that order: above 25 µM and above 20 µM.
In the case of `C/C=C/c1ccc(OCc2cn([C@@H]3O[C@H](COC(C)=O)[C@@H](OC(C)=O)[C@H](OC(C)=O)[C@H]3OC(C)=O)nn2)c(OC)c1`, the IC50 in [1] came to 21.7 µM. Also, in data set [2], the MIC was above 20 µM.
As for `C#CCOc1ccc(CCC)cc1OC`, the half-inhibitory concentration (IC50) in data set [1] was above 25 µM. Moreover, in [2], the MIC was above 20 µM.
For `C=CCc1ccc(OCc2cn(C[C@@H](O)Cc3ccc(O[Si](C)(C)C(C)(C)C)c(OC)c3)nn2)c(OC)c1`, in that order: above 25 µM and above 20 µM.
In the case of `C#CCOc1ccc(CC=C)cc1OC`, the IC50 in [1] was above 25 µM. Moreover, the MIC in data set [2] was above 20 µM.
In the case of `C/C=C/c1ccc(O)c(OC)c1`, the IC50 in data set [1] turned out to be 1900 µM. Moreover, the MIC in [2] turned out to be 3800 µM (≈ 624 µg/mL). Also, in [3], the Activity amounted to 0.399. Besides, the outcome in data set [4], in data set [5], in data set [6] and in [7] was Active.
Take `CCCc1ccc(OCc2cn([C@@H]3O[C@H](CO)[C@H](O)[C@H](O)[C@@H]3O)nn2)c(OC)c1`: in data set [1], the IC50 is above 25 µM. Moreover, in data set [2], the minimum inhibitory concentration (MIC) was above 20 µM.
For `C#CCOc1ccc(/C=C/C)cc1OC`, in that order: above 25 µM and above 20 µM.
For `C=CCc1ccc(O[Si](C)(C)C(C)(C)C)c(OC)c1`, in that order: above 25 µM and above 20 µM.
On to `C[C@@H]1[C@H](O)[C@@H](C)/C=C/C=C/C=C/C=C/C=C/C=C/C=C/[C@H](O[C@@H]2O[C@H](C)[C@@H](O)[C@H](N)[C@@H]2O)C[C@@H]2O[C@](O)(C[C@@H](O)C[C@@H](O)[C@H](O)CC[C@@H](O)C[C@@H](O)CC(=O)O[C@H]1C)C[C@H](O)[C@H]2C(=O)O` [AMPHOTERICIN B], for which the IC50 in data set [1] is 1.08 µM. The MIC in data set [2] amounted to 0.216 µM (≈ 0.2 µg/mL). In data set [8], the half-maximal cytotoxic concentration (CC50) turned out to be 5.4 µM. For the same compound, the Activity in data set [3] is given as 1.126.
Regarding `CCC(C)n1ncn(-c2ccc(N3CCN(c4ccc(OCC5COC(Cn6cncn6)(c6ccc(Cl)cc6Cl)O5)cc4)CC3)cc2)c1=O` (configuration not stated) [ITRACONAZOLE], in [2], the MIC stood at 0.552 µM (≈ 0.39 µg/mL).
As to `C/C=C/c1ccc(OCc2cn([C@@H]3O[C@H](COC(=O)c4ccccc4)[C@H](OC(=O)c4ccccc4)[C@H](OC(=O)c4ccccc4)[C@H]3OC(=O)c3ccccc3)nn2)c(OC)c1`, the IC50 in data set [1] turned out to be 15.2 µM. Besides, the minimum inhibitory concentration (MIC) in data set [2] is above 20 µM.
Take `CCCc1ccc(OCc2cn(C[C@@H](O)Cc3ccc(O[Si](C)(C)C(C)(C)C)c(OC)c3)nn2)c(OC)c1`: the IC50 in data set [1] was above 25 µM. For the same compound, the MIC in [2] was above 20 µM.
`C=CCc1ccc(OCc2cn([C@@H]3O[C@H](COC(C)=O)[C@@H](OC(C)=O)[C@H](OC(C)=O)[C@H]3OC(C)=O)nn2)c(OC)c1`: the selectivity ratio in data set [9] turned out to be 8.01. Besides, the CC50 at 24 h in [10] was found to be 43.5 µM. The IC50 in data set [1] was determined as 5.42 µM. The MIC in [2] was determined as 10.9 µM (≈ 6.25 µg/mL). For the same compound, the result in data set [11], in [12], in data set [4], in data set [5], in data set [6] and in data set [7] was Active. Also, the result in [13] and in [14] was Active. For the same compound, the Activity in [3] is recorded as 0.295.
For the compound `C=CCc1ccc(O)c(OC)c1` [EUGENOL], the IC50 in [1] stood at 1900 µM. Moreover, the minimum inhibitory concentration (MIC) in [2] stood at 3800 µM (≈ 624 µg/mL).
For `C=CCc1ccc(OCc2cn([C@@H]3O[C@H](COC(C)=O)[C@@H](O[C@H]4O[C@H](COC(C)=O)[C@@H](OC(C)=O)[C@H](OC(C)=O)[C@H]4OC(C)=O)[C@H](OC(C)=O)[C@H]3OC(C)=O)nn2)c(OC)c1`, in that order: 14.5 µM and above 20 µM.
The matching figures for `C=CCc1ccc(OCc2cn([C@@H]3O[C@H](CO)[C@@H](O)[C@H](O)[C@H]3O)nn2)c(OC)c1`: above 25 µM and above 20 µM.
Turning to `C/C=C/c1ccc(OCc2cn([C@@H]3O[C@H](COC(C)=O)[C@@H](O[C@@H]4O[C@H](COC(C)=O)[C@H](OC(C)=O)[C@H](OC(C)=O)[C@H]4OC(C)=O)[C@H](OC(C)=O)[C@H]3OC(C)=O)nn2)c(OC)c1`, the IC50 in data set [1] came out at 14.5 µM. Besides, in [2], the minimum inhibitory concentration (MIC) is above 20 µM.
The matching figures for `COc1cc(C[C@H](O)CN=[N+]=[N-])ccc1O[Si](C)(C)C(C)(C)C`: above 25 µM and above 20 µM.
With `COc1cc(C[C@H](O)CO)ccc1O[Si](C)(C)C(C)(C)C`, in data set [1], the IC50 was above 25 µM. The minimum inhibitory concentration (MIC) in [2] was above 20 µM.
On to `C/C=C/c1ccc(OCc2cn([C@@H]3O[C@H](COC(C)=O)[C@H](OC(C)=O)[C@H](OC(C)=O)[C@H]3OC(C)=O)nn2)c(OC)c1`, for which the IC50 in data set [1] turned out to be 10.9 µM. Besides, in [2], the MIC is above 20 µM.
In the case of `CCCc1ccc(O)c(OC)c1`, in data set [9], the selectivity ratio amounted to 16. In addition, in [10], the half-maximal cytotoxic concentration (CC50) at 24 h worked out at 150 µM. Besides, in data set [1], the concentration for half-maximal inhibition (IC50) is 9.39 µM. Also, the MIC in data set [2] was 15.5 µM (≈ 2.58 µg/mL). For the same compound, the outcome in [11], in data set [12], in data set [4], in data set [5], in [6] and in data set [7] was Active. The outcome in data set [15] and in [16] was Active. The Activity in data set [3] turned out to be 0.176.
For `C=CCc1ccc(OCc2cn([C@@H]3O[C@H](COC(C)=O)[C@@H](O[C@@H]4O[C@H](COC(C)=O)[C@H](OC(C)=O)[C@H](OC(C)=O)[C@H]4OC(C)=O)[C@H](OC(C)=O)[C@H]3OC(C)=O)nn2)c(OC)c1`, the IC50 in data set [1] amounted to 14.5 µM. Also, the MIC in [2] was above 20 µM.
The matching figures for `C/C=C/c1ccc(OCc2cn([C@@H]3O[C@H](COC(C)=O)[C@@H](O[C@H]4O[C@H](COC(C)=O)[C@@H](OC(C)=O)[C@H](OC(C)=O)[C@H]4OC(C)=O)[C@H](OC(C)=O)[C@H]3OC(C)=O)nn2)c(OC)c1`: 14.5 µM and above 20 µM.
The matching figures for `C/C=C/c1ccc(OCc2cn(C[C@@H](O)Cc3ccc(O[Si](C)(C)C(C)(C)C)c(OC)c3)nn2)c(OC)c1`: above 25 µM and above 20 µM.
With `C=CCc1ccc(OCc2cn([C@@H]3O[C@H](COC(C)=O)[C@H](OC(C)=O)[C@H](OC(C)=O)[C@H]3OC(C)=O)nn2)c(OC)c1`, in [1], the half-inhibitory concentration (IC50) was determined as 10.9 µM. The MIC in [2] is above 20 µM.

The values are drawn from ChEMBL document CHEMBL5108042, “Design and synthesis of eugenol/isoeugenol glycoconjugates and other analogues as antifungal agents against Aspergillus fumigatus” (RSC Med Chem, 2022).
